Experimental data reported in patent publication US12544375B2, “Small molecule therapeutic for parkinson's disease paired with a biomarker of therapeutic activity” (The Board of Trustees of the Leland Stanford Junior …, priority 2019, dated 2026).

System: healthy-1 or PD-2 fibroblasts
Assay: Baseline mitochondrial reactive oxygen species, MitoSox staining
Type: cell-based, human
Conditions: 10 μM for 30 hrs
Procedure: FIG. 8. Related to FIG. 2-4. Miro1 Reducer in Human Cell and Fly Models. (A) Fibroblasts from Healthy-1 and PD-2 were treated, lysed, and blotted as indicated. Band intensities are normalized to those of GAPDH from the same blots and compared to “Healthy-1, no treatment”. n=4 independent experiments. (B) Fibroblasts from PD-2 were treated and immunostained as indicated. The intensity was quantified for each cell across 264-320 cells from 3 independent experiments, compared to “no treatment”. (C) Fibroblasts were treated, immunoprecipitated (IPed) with anti-Miro1, and blotted as indicated. Similar results were observed twice. (D) Similar as in (C), fibroblasts were treated as indicated, and IPed with anti-Miro1. The GTPase activity of the IPed Miro1 protein was measured as described in Method. […] The MitoSox intensity was quantified for each cell across 106-161 cells from 3 coverslips. […] The TMRM intensity was measured for each cell across 48-60 cells from 3 independent experiments, and expressed as a fraction of the mean of “Healthy-1, no treatment”. […] The movement (the intensity of non-yellow) was quantified for each cell as described in (Tsai et al., 2014) across 22-31 cells from 3 transfections. […] (1) Left: The percentage of TH-positive iPSC-derived neurons out of total cells (Dapi-positive) is calculated after immunocytochemistry under 20× as described in FIG. 3. […]

O=C(Nc1ccc(Nc2cc(-n3ccnc3)ncn2)cc1)Nc1cccc(F)c1 [Miro1 Reducer]
baseline mitochondrial reactive oxygen species levels (MitoSox): did not affect
